Consider 32 compounds from patent publication US8513232B2, “Substituted spirocyclic piperidine derivatives as histamine-3 (H3) receptor ligands” (Cephalon, Inc., priority 2008, dated 2013).

Where two headings read alike, the source gives them in different places.

For one data set, the target named is T1, human H3 receptor (Homo sapiens, UniProt Q9Y5N1).
T1 construct: expressed in transfected cells
The data set is described as follows: Human H3 radioligand binding ([3H]-N-alpha-methylhistamine, SPA). In outline:
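Compounds (0.01 nM-30 μM) competed with approximately 1 nM [3H]-N-alpha-methylhistamine for human H3 receptor in membranes of stably transfected CHO cells, 10 μg protein per well, in Tris-HCl pH 7.4/MgCl2/BSA buffer for 4 h at room temperature. Bound radioligand measured by scintillation proximity; 10 μM clobenpropit gave non-specific binding.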

Data set [1] has as its target T2, rat histamine H3 receptor (Rattus norvegicus, UniProt Q9QYN8).
T2 construct: encoding the entire 445-amino-acid rat histamine H3 receptor; expressed in transfected cells; membrane preparation
In words: Rat H3 radioligand binding ([3H]-N-alpha-methylhistamine, SPA). A digest of the protocol:
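SPA-bead binding assay using [3H]-N-alpha-methylhistamine (approximately 1 nM final) with test compounds from 0.01 nM to 30 μM. Rat H3 receptor membranes came from stably transfected CHO-A3 cells; incubation ran 4 h at room temperature, in the dark, in Tris pH 7.4 buffer with MgCl2 and BSA. Clobenpropit (10 μM) gave non-specific binding.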

[2] abbreviates: Human H3 binding, Table B, Examples 136-362, read-out: hum H3 binding Ki.
The mark [3] stands for this setting: Rat H3 binding, Table B, Examples 136-362, read-out: rat H3 binding Ki.
Setting [4] is: Table C, human H3 binding, read-out: Human H3 Ki.
Where [5] appears, read: Table C, rat H3 binding, read-out: Rat H3 Ki.
Setting [6] is: Table A, human H3 binding, read-out: Human Ki.
Where [7] appears, read: Table A, rat H3 binding, read-out: Rat Ki.
Where [8] appears, read: human H3 binding, Table D, read-out: Human H3 Ki.
[9] abbreviates: rat H3 binding, Table D, read-out: Rat H3 Ki.

T1 sequence (Q9Y5N1 whole entry): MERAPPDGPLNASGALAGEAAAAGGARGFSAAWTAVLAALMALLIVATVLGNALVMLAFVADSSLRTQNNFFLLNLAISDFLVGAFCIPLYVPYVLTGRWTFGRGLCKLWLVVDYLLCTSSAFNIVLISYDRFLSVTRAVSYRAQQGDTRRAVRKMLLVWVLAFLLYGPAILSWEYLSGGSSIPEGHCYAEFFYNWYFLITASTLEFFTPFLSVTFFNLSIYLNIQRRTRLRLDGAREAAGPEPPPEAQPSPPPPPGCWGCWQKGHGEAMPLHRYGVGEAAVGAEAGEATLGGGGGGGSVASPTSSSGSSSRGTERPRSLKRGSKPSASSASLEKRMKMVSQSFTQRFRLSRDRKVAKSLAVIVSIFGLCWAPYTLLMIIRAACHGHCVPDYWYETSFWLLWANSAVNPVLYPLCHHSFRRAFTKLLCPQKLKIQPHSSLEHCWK
T2 sequence (Q9QYN8 whole entry): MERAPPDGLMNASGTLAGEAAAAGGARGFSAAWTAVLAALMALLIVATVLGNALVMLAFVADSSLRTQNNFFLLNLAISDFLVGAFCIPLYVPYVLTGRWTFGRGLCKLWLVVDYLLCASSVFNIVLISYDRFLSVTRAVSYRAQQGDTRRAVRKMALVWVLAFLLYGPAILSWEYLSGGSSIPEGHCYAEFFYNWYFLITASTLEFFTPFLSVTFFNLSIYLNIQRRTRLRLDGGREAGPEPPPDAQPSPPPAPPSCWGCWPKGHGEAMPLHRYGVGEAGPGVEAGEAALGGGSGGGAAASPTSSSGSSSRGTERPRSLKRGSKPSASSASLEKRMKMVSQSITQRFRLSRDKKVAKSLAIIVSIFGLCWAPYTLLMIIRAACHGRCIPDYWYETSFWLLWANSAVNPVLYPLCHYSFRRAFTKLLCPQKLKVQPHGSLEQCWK

Usually melting point stands for the temperature, or range, at which the solid turns liquid. The term Ki denotes a measure of affinity in units of concentration, obtained from inhibition or displacement. Take `O=C(Nc1ccc2c(c1)COC1(CCN(C3CCC3)CC1)O2)c1ccccn1` [Example 152]: the melting point was in the range of 172 to 174 °C. In addition, at human H3 receptor (setting [2]), the Ki is less than 200 nM. Besides, the Ki in data set [1] (setting [3]) is less than 200 nM.
In turn, `CC(C)(C)OC(=O)N1CCC(Oc2ccc3c(c2)CCC2(CCN(C4CCC4)CC2)O3)CC1` [Example 417, 1′-cyclobutyl-6-(piperidine-1-carboxylic acid tert-butyl ester-4-yloxy)-3,4-dihydro spiro-[2H-benzopyran-2,4′-piperidine]] registered a melting point of 118 to 120 °C. Also, the Ki at human H3 receptor (setting [4]) was less than 200 nM. Besides, in data set [1] (setting [5]), the Ki was less than 200 nM.
Compound `NS(=O)(=O)c1ccc(-c2ccc3c(c2)COC2(CCN(C4CCC4)CC2)O3)cc1` [Example 48] displayed a melting point of 195 to 200 °C. The Ki on human H3 receptor (setting [6]) was less than 200 nM. In data set [1] (setting [7]), the Ki is less than 200 nM.
Turning to `Cc1noc(COc2ccc3c(c2)CCC2(CCN(C4CCC4)CC2)O3)n1` [Example 616], the melting point was 95 to 96 °C. In addition, the Ki at human H3 receptor (setting [8]) was less than 200 nM. Besides, the Ki in data set [1] (setting [9]) is less than 200 nM.
`CNC(=O)C1CCN(c2ccc3c(c2)CCC2(CCN(C4CCC4)CC2)O3)CC1` [Example 396] returned a melting point of 264 to 267 °C. The Ki on human H3 receptor (setting [4]) is less than 200 nM. For the same compound, the Ki in data set [1] (setting [5]) was less than 200 nM.
`FC1(F)CCN(c2ccc3c(c2)COC2(CCN(C4CCC4)CC2)O3)C1` [Example 423]: the melting point is 217 to 221 °C. Further, the Ki at human H3 receptor (setting [4]) is less than 200 nM. In addition, in data set [1] (setting [5]), the Ki is less than 200 nM.
Compound `F[C@@H]1CCN(c2ccc3c(c2)CCC2(CCN(C4CCC4)CC2)O3)C1` [Example 414] returned a melting point of 275 to 280 °C. Further, the Ki on human H3 receptor (setting [4]) is less than 200 nM. Also, the Ki in data set [1] (setting [5]) was less than 200 nM.
For the compound `CN1CC(c2ccc3c(c2)COC2(CCN(C4CCC4)CC2)O3)CCC1=O` (stereo not drawn) [Example 550], the melting point lay within 120 to 125 °C. On human H3 receptor (read-out: Human H3 Ki), the Ki was less than 200 nM. In addition, the Ki in data set [1] (read-out: Rat H3 kI) was less than 200 nM.
The compound `OC1(c2ccc3c(c2)CCC2(CCN(C4CCC4)CC2)O3)CCSCC1` [Example 532] gave a melting point of 146 to 148 °C. In addition, the inhibition constant Ki at human H3 receptor (read-out: Human H3 Ki) was less than 200 nM. Moreover, the inhibitory constant (Ki) in data set [1] (read-out: Rat H3 kI) was less than 200 nM.
The compound `CCSc1c[nH]c(=O)cc1-c1ccc2c(c1)COC1(CCN(C3CCC3)CC1)O2` [Example 765] displayed a melting point of 85 to 88 °C. Also, the inhibition constant (Ki) at human H3 receptor (setting [8]) was less than 200 nM. The Ki in data set [1] (setting [9]) is less than 200 nM.
Compound `O=C(Nc1ccc2c(c1)COC1(CCN(C3CCC3)CC1)O2)c1cnco1` [Example 286] displayed a melting point of 175 to 177 °C. Besides, the Ki at human H3 receptor (setting [2]) is less than 200 nM. Also, in data set [1] (setting [3]), the Ki was less than 200 nM.
The compound `NC(=O)c1cccc(-c2ccc3c(c2)COC2(CCN(C4CCC4)CC2)O3)c1` [Example 58] registered a melting point of 109.3 °C. For the same compound, the Ki at human H3 receptor (setting [6]) was less than 200 nM. For the same compound, the Ki in data set [1] (setting [7]) was less than 200 nM.
For `COc1ccc(C(O)c2ccc3c(c2)COC2(CCN(C4CCC4)CC2)O3)cn1` (stereo not drawn) [Example 504], the melting point was in the range of 78 to 80 °C. For the same compound, the Ki at human H3 receptor (read-out: Human H3 Ki) is less than 200 nM. In addition, in data set [1] (read-out: Rat H3 kI), the Ki was less than 200 nM.
`COCCNC(=O)CC1CCN(c2ccc3c(c2)COC2(CCN(C4CCC4)CC2)O3)CC1` [Example 588] returned a melting point of 150.1 to 152.2 °C. Further, the Ki at human H3 receptor (setting [8]) was less than 200 nM. The Ki in data set [1] (setting [9]) is less than 200 nM.
As for `CN(C)c1cc(C(=O)Nc2ccc3c(c2)COC2(CCN(C4CCC4)CC2)O3)ccn1` [Example 314], the melting point was in the range of 213 to 215 °C. For the same compound, the Ki on human H3 receptor (setting [2]) was less than 200 nM. Moreover, the Ki in data set [1] (setting [3]) is less than 200 nM.
On to `CC(=O)N(Cc1ccncc1)c1ccc2c(c1)COC1(CCN(C3CCC3)CC1)O2` [Example 250], for which the melting point was 63 to 65 °C. Besides, the Ki at human H3 receptor (setting [2]) was less than 200 nM. For the same compound, in data set [1] (setting [3]), the Ki was less than 200 nM.
For the compound `Cn1cc2c(n1)CCC(c1ccc3c(c1)CCC1(CCN(C4CCC4)CC1)O3)=C2` [Example 448], the melting point fell in the range of 205 to 208 °C. In addition, the Ki on human H3 receptor (read-out: Human H3 Ki) is less than 200 nM. Further, the Ki in data set [1] (read-out: Rat H3 kI) is less than 200 nM.
`CCOC(=O)c1cncc(-c2ccc3c(c2)COC2(CCN(C4CCC4)CC2)O3)c1` [Example 59] had a melting point of 239.2 °C. Further, on human H3 receptor (setting [6]), the Ki was less than 200 nM. In data set [1] (setting [7]), the Ki is less than 200 nM.
`CNC(=O)c1cc(-c2ccc3c(c2)COC2(CCN(C4CCC4)CC2)O3)cs1` [Example 607] had a melting point of 186 to 188 °C. Besides, the Ki at human H3 receptor (setting [8]) is less than 200 nM. Besides, in data set [1] (setting [9]), the Ki is less than 200 nM.
With `CC(=O)N1CCCN(c2ccc3c(c2)CCC2(CCN(C4CCC4)CC2)O3)CC1` [Example 395], the melting point was 276 to 278 °C. In addition, at human H3 receptor (setting [4]), the Ki is less than 200 nM. Moreover, in data set [1] (setting [5]), the Ki was less than 200 nM.
The compound `O=C(N[C@@H]1CCOC1)c1ccc(-c2ccc3c(c2)COC2(CCN(C4CCC4)CC2)O3)cc1` [Example 346] showed a melting point of 198 to 199 °C. Also, on human H3 receptor (setting [2]), the inhibitory constant (Ki) was less than 200 nM. Besides, in data set [1] (setting [3]), the Ki is less than 200 nM.
As to `NC(=O)c1ccc(-c2ccc3c(c2)COC2(CCN(C4CCC4)CC2)O3)cc1O` [Example 743], the melting point was in the range of 267 to 269 °C. Also, on human H3 receptor (setting [8]), the Ki is less than 200 nM. The Ki in data set [1] (setting [9]) is less than 200 nM.
As for `FC(F)(F)c1ncccc1-c1ccc2c(c1)COC1(CCN(C3CCC3)CC1)O2` [Example 753], the melting point was in the range of 190 to 192 °C. The Ki on human H3 receptor (setting [8]) was in the range of 200 to 1000 nM. In addition, the Ki in data set [1] (setting [9]) was in the range of 200 to 1000 nM.
`c1ccc(Nc2ccc3c(c2)COC2(CCN(C4CCC4)CC2)O3)cc1` [Example 124] displayed a melting point of 52 to 57 °C. For the same compound, the Ki on human H3 receptor (setting [6]) is less than 200 nM. Besides, the Ki in data set [1] (setting [7]) was less than 200 nM.
For the compound `COc1ccc(-c2ccc3c(c2)COC2(CCN(CC4CCOCC4)CC2)O3)cn1` [Example 716], the melting point fell in the range of 151 to 153 °C. The Ki on human H3 receptor (setting [8]) is more than 1000 nM. Besides, the Ki in data set [1] (setting [9]) was more than 1000 nM.
As to `CCc1cc(=O)[nH]cc1-c1ccc2c(c1)COC1(CCN(C3CCC3)CC1)O2` [Example 803], the melting point lay in the range of 107 to 109 °C. For the same compound, on human H3 receptor (setting [8]), the Ki was less than 200 nM. Besides, the Ki in data set [1] (setting [9]) is less than 200 nM.
In turn, `Cc1ncoc1C(=O)Nc1ccc2c(c1)CCC1(CCN(C3CCC3)CC1)O2` [Example 243] gave a melting point of 169 to 171 °C. At human H3 receptor (setting [2]), the Ki was less than 200 nM. Besides, the Ki in data set [1] (setting [3]) is less than 200 nM.
`CNC(=O)c1ccc(-c2ccc3c(c2)COC2(CCN(C4CCC4)CC2)O3)s1` [Example 176] gave a melting point of 215 to 219 °C. In addition, the Ki on human H3 receptor (setting [2]) was less than 200 nM. Besides, the Ki in data set [1] (setting [3]) was less than 200 nM.
The compound `CNC(=O)CCc1ccc2c(c1)COC1(CCN(C3CCC3)CC1)O2` [Example 653] returned a melting point of 86 to 88 °C. For the same compound, the Ki at human H3 receptor (setting [8]) is less than 200 nM. The Ki in data set [1] (setting [9]) was less than 200 nM.
In turn, `CC(C)N1CC(c2ccc3c(c2)COC2(CCN(C4CCC4)CC2)O3)CCC1=O` (stereo not drawn) [Example 563] displayed a melting point of 129 to 134 °C. Also, the Ki at human H3 receptor (read-out: Human H3 Ki) is less than 200 nM. Also, the Ki in data set [1] (read-out: Rat H3 kI) is less than 200 nM.
In turn, `O=c1cc(-c2ccc3c(c2)COC2(CCN(C4CCC4)CC2)O3)c(Cl)cn1CC(F)(F)F` [Example 781] returned a melting point of 194 to 197 °C. Further, at human H3 receptor (setting [8]), the Ki is less than 200 nM. For the same compound, the Ki in data set [1] (setting [9]) is less than 200 nM.
For the compound `c1nc(-c2ccc3c(c2)COC2(CCN(C4CCC4)CC2)O3)cs1` [Example 66], the melting point lay in the range of 165 to 166 °C. The Ki on human H3 receptor (setting [6]) was less than 200 nM. The Ki in data set [1] (setting [7]) is less than 200 nM.
